Assay results as given in patent EP0312000B1, “Aminomethyl oxooxazolidinyl aroylbenzene derivatives useful as antibacterial agents” (THE DU PONT MERCK PHARMACEUTICAL COMPANY, priority 1987, dated 1989).
≈ marks a conversion by molar mass, not a printed value. Like-named read-outs stand apart in the source and are kept apart here.

Columns and labels:
[1] = test system: Staphylococcus Aureus; assay: In vivo activity in an acute lethal mouse infection model; conditions: 168 h, mice infected intraperitoneally with S. aureus, dosed at one hour and four hours post-infection, survivors on seventh day
Method: The in vivo potency of these compounds is exemplified by the data summarized in Table V. Determinations of in vivo efficacy are performed by inoculating mice intraperitoneally with cultures of the infecting organism diluted to produce 100% mortality in control animals within twenty-four hours. The culture of S. aureus used to infect the animals was diluted to the required bacterial density using 5% aqueous hog gastric mucin. The compounds are dissolved or suspended in 0.25% aqueous Methocel® (Methocel®: Hydroxypropyl Methylcellulose, E15 Premium, Dow Chemical Company) for oral administration or sterile distilled water containing 5% dimethylsulfoxide (Fisher Scientific Company, Fairlawn, NJ) for subcutaneous administration. The mice are dosed at one hour and at four hours post-infection. Mortality is recorded daily until test termination seven days post infection. The number of survivors in each treatment group on the seventh day after infection is used in the calculation of the ED₅₀, the dose of compound that protects 50% of the mice (Litchfield, J. T. and Wildoxon. A simplified method for evaluating dose-effect experiments. J. Pharmacol Exp. Ther., 96:99-113, 1949).

[2] = test system: Staphylococcus aureus; assay: In vitro broth microdilution minimal inhibitory concentration (MIC), Mueller-Hinton broth; format: cell-based; conditions: 24-hour MIC, standard microdilution method, read-out: Minimum Inhibitory Concentration Staphylococcus aureus
Excerpt: (§1) A standard microdilution method (National Committee for Clinical Standards. Tentative standard M7-T. Standard methods for dilution antimicrobial susceptibility tests for bacteria that grow aerobically. National Committee for Clinical Laboratory Standards, Villanova, PA. 1982) with Mueller-Hinton broth is used to determine the 24-hour minimal inhibitory concentrations (MIC's) for test strains of Staphylococcus aureus and Escherichia coli.

[3] = test system: Escherichia coli; assay: as above; format: cell-based; conditions: 24-hour MIC, standard microdilution method, read-out: Minimum Inhibitory Concentration Escherichia coli
Excerpt: as §1

[4] = oral in 0.25% aqueous Methocel, read-out: ED₅₀ Oral Administration
[5] = sc, subcutaneous in sterile distilled water containing 5% dimethylsulfoxide, read-out: ED₅₀ Subcutaneous Administration

## CC(=O)NC[C@H]1CN(c2ccc(C(=O)c3ccc(F)cc3)cc2)C(=O)O1 [Example 1, (ℓ)-N-[3-[4-(4-fluorobenzoyl)-phenyl]-2-oxooxazolidin-5-ylmethyl]acetamide]
[1]; [4]
  ED50: 40 mg/kg
[1]; [5]
  ED50: 20 mg/kg
[2]
  MIC: 4 µg/mL (≈ 11.2 µM)
[3]
  MIC: > 128 µg/mL

## CC(=O)NC[C@H]1CN(c2ccc(C(=O)c3cccnc3)cc2)C(=O)O1 [Example 15]
[1]; [4]
  ED50: > 90 mg/kg
[1]; [5]
  ED50: 59 mg/kg
[2]
  MIC: 8 µg/mL (≈ 23.6 µM)
[3]
  MIC: > 128 µg/mL

## CC(=O)NC[C@H]1CN(c2ccc(C(=O)c3ccc([N+](=O)[O-])cc3)cc2)C(=O)O1 [Example 9, (ℓ)-N-[3-[4-(4-nitrobenzoyl)phenyl]-2-oxooxazolidin-5-ylmethyl]acetamide]
[1]; [4]
  ED50: > 90 mg/kg
[1]; [5]
  ED50: > 90 mg/kg
[2]
  MIC: 1 µg/mL (≈ 2.61 µM)
[3]
  MIC: > 128 µg/mL

## CSc1ccc(C(=O)c2ccc(N3C[C@H](CNC(C)=O)OC3=O)cc2)cc1 [Example 8]
[1]; [4]
  ED50: > 90 mg/kg
[1]; [5]
  ED50: > 90 mg/kg
[2]
  MIC: 4 µg/mL (≈ 10.4 µM)
[3]
  MIC: > 128 µg/mL

## CC(=O)NC[C@H]1CN(c2ccc(C(O)c3ccccc3)cc2)C(=O)O1 (stereo partly drawn) [Example 20]
[1]; [4]
  ED50: 65 mg/kg
[1]; [5]
  ED50: 52 mg/kg
[2]
  MIC: 32 µg/mL (≈ 94 µM)
[3]
  MIC: > 128 µg/mL

## COc1cc(Cl)ccc1C(=O)c1ccc(N2C[C@H](CNC(C)=O)OC2=O)cc1 [Example 7]
[1]; [4]
  ED50: > 120 mg/kg
[1]; [5]
  ED50: > 120 mg/kg
[2]
  MIC: 32 µg/mL (≈ 79.4 µM)
[3]
  MIC: > 128 µg/mL

## CC(=O)NC[C@H]1CN(c2ccc(C(=O)c3ccc(F)cc3F)cc2)C(=O)O1 [Example 6, (ℓ)-N-[3-[4-(2,4-difluorobenzoyl)phenyl]-2-oxooxazolidin-5-ylmethyl]acetamide]
[1]; [4]
  ED50: 30 mg/kg
[1]; [5]
  ED50: 26 mg/kg
[2]
  MIC: 1 µg/mL (≈ 2.67 µM)
[3]
  MIC: > 128 µg/mL

## CC(=O)NC[C@H]1CN(c2ccc(C(=O)c3ccc([S+](C)[O-])cc3)cc2)C(=O)O1 (stereo partly drawn) [Example 10]
[1]; [4]
  ED50: > 90 mg/kg
[1]; [5]
  ED50: > 90 mg/kg
[2]
  MIC: 16 µg/mL (≈ 40 µM)
[3]
  MIC: > 128 µg/mL

## CC(=O)NC[C@H]1CN(c2ccc(C(=O)c3cccc(F)c3)cc2)C(=O)O1 [Example 5]
[1]; [4]
  ED50: 42 mg/kg
[1]; [5]
  ED50: 25 mg/kg
[2]
  MIC: 8 µg/mL (≈ 22.4 µM)
[3]
  MIC: > 128 µg/mL

## CC(=O)NC[C@H]1CN(c2ccc(C(=O)c3ccccc3)cc2)C(=O)O1 [Example 2]
[1]; [4]
  ED50: 47 mg/kg
[1]; [5]
  ED50: 60 mg/kg
[2]
  MIC: 4 µg/mL (≈ 11.8 µM)
[3]
  MIC: > 128 µg/mL

## CC(=O)NC[C@H]1CN(c2ccc(C(=O)c3ccc(S(C)(=O)=O)cc3)cc2)C(=O)O1 [Example 11]
[1]; [4]
  ED50: > 90 mg/kg
[1]; [5]
  ED50: > 90 mg/kg
[2]
  MIC: 4 µg/mL (≈ 9.6 µM)
[3]
  MIC: > 128 µg/mL

## COc1ccc(C(=O)c2ccc(N3C[C@H](CNC(C)=O)OC3=O)cc2)cc1 [Example 3]
[1]; [4]
  ED50: 41 mg/kg
[1]; [5]
  ED50: 15 mg/kg
[2]
  MIC: 4 µg/mL (≈ 10.9 µM)
[3]
  MIC: > 128 µg/mL
